Target: T1, human Orexin-2 receptor (Homo sapiens, UniProt O43614)
T1 construct: expressed in transfected cells; host or cells: HEK293 cells (transient transfection, Genejuice); membranes
T1 sequence (O43614 1-444): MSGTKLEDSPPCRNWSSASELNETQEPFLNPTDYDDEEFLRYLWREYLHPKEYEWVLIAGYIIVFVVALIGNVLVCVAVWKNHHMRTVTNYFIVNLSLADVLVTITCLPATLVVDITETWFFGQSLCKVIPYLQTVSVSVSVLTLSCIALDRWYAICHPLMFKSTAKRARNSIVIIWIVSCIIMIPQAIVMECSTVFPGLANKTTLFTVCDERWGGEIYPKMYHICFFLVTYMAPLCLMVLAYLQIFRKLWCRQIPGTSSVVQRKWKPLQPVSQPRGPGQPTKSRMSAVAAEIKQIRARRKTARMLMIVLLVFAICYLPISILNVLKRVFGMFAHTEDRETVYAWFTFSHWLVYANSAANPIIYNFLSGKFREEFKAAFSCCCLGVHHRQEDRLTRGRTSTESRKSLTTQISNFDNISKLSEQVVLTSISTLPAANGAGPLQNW
Experiment: 3H-EMPA radioligand binding assay
Conditions: 3H-EMPA displacement, membranes of HEK293 cells transfected with human Orexin-2 receptor; KI by Cheng-Prussoff; read-out: OX2 pKi ave (converted)
In short: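 Membranes from HEK293 cells transiently transfected with human orexin-2 receptor cDNA, assayed with [3H]EMPA. Bound ligand collected on PEI-treated GF/B filters and counted by scintillation; IC50 from inhibition curves, Ki by Cheng-Prusoff.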

| Structure (SMILES) | Ki [nM] |
| --- | --- |
| COc1cc(N2C(=O)N(Cc3c(F)cc(F)cc3Cl)c3ccccc3S2(=O)=O)cc(OC)n1 [Example 157, 4-(2-Chloro-4,6-difluorobenzyl)-2-(2,6-dimethoxypyridin-4-yl)-2H-1,2,4-benzothiadiazin-3(4H)-one 1,1-dioxide] | 0.575 |
| CN(C)c1cccc(N2C(=O)N(Cc3c(F)cc(F)cc3F)c3ccccc3S2(=O)=O)n1 [Example 158, 2-[6-(Dimethylamino)pyridin-2-yl]-4-(2,4,6-trifluorobenzyl)-2H-1,2,4-benzothiadiazin-3(4H)-one 1,1-dioxide] | 3.39 |
| CN(C)c1cc(N2C(=O)N(Cc3c(F)cc(F)cc3F)c3ccccc3S2(=O)=O)ccn1 [Example 159, 2-[2-(Dimethylamino)pyridin-4-yl]-4-(2,4,6-trifluorobenzyl)-2H-1,2,4-benzothiadiazin-3(4H)-one 1,1-dioxide] | 3.09 |
| CSc1ccc(N2C(=O)N(Cc3c(F)cc(F)cc3F)c3ccccc3S2(=O)=O)cn1 [Example 160, 2-[6-(Methylsulfanyl)pyridin-3-yl]-4-(2,4,6-trifluorobenzyl)-2H-1,2,4-benzothiadiazin-3(4H)-one 1,1-dioxide] | 17.4 |
| COc1ccc(N2C(=O)N(Cc3c(F)cc(F)cc3Cl)c3ccccc3S2(=O)=O)nc1OC [Example 161, 4-(2-Chloro-4,6-difluorobenzyl)-2-(5,6-dimethoxypyridin-2-yl)-2H-1,2,4-benzothiadiazin-3(4H)-one 1,1-dioxide] | 1.26 |
| COc1cc(N2C(=O)N(Cc3ncc(F)cc3C)c3ccccc3S2(=O)=O)cc(OC)n1 [Example 162, 2-(2,6-Dimethoxypyridin-4-yl)-4-[(5-fluoro-3-methylpyridin-2-yl)methyl]-2H-1,2,4-benzothiadiazin-3(4H)-one 1,1-dioxide] | 18.6 |
| COc1cc(N2C(=O)N(Cc3c(F)cccc3Cl)c3ccccc3S2(=O)=O)cc(OC)n1 [Example 166, 4-(2-Chloro-6-fluorobenzyl)-2-(2,6-dimethoxypyridin-4-yl)-2H-1,2,4-benzothiadiazin-3(4H)-one 1,1-dioxide] | 2.69 |
| COc1cc(N2C(=O)N(Cc3c(F)cccc3F)c3ccccc3S2(=O)=O)cc(OC)n1 [Example 167, 4-(2,6-Difluorobenzyl)-2-(2,6-dimethoxypyridin-4-yl)-2H-1,2,4-benzothiadiazin-3(4H)-one 1,1-dioxide] | 2.19 |
| COc1ccc(N2C(=O)N(Cc3c(F)cccc3Cl)c3ncccc3S2(=O)=O)nc1OC [Example 168, 4-(2-Chloro-6-fluorobenzyl)-2-(5,6-dimethoxypyridin-2-yl)-2H-pyrido[2,3-e][1,2,4]thiadiazin-3(4H)-one 1,1-dioxide] | 1.23 |
| COc1cnc(N2C(=O)N(Cc3c(F)cc(F)cc3F)c3ccccc3S2(=O)=O)nc1OC [Example 170, 2-(4,5-dimethoxypyrimidin-2-yl)-4-(2,4,6-trifluorobenzyl)-2H-1,2,4-benzothiadiazin-3(4H)-one 1,1-dioxide] | 7.24 |
| COc1cc(N2C(=O)N(Cc3c(F)cc(F)cc3F)c3ncccc3S2(=O)=O)cnc1C [Example 176, 2-(5-Methoxy-6-methylpyridin-3-yl)-4-(2,4,6-trifluorobenzyl)-2H-pyrido[2,3-e][1,2,4]thiadiazin-3(4H)-one 1,1-dioxide] | 6.46 |
| COc1cc(F)c(CN2C(=O)N(c3cnc(C)c(C)c3)S(=O)(=O)c3ccccc32)c(F)c1 [Example 178, 4-(2,6-difluoro-4-methoxybenzyl)-2-(5,6-dimethylpyridin-3-yl)-2H-1,2,4-benzothiadiazin-3(4H)-one 1,1-dioxide] | 4.37 |
| COc1cc(N2C(=O)N(Cc3c(F)cc(F)cc3Cl)c3ncccc3S2(=O)=O)cc(OC)n1 [Example 180, 4-(2-Chloro-4,6-difluorobenzyl)-2-(2,6-dimethoxypyridin-4-yl)-2H-pyrido[2,3-e][1,2,4]thiadiazin-3(4H)-one 1,1-dioxide] | 2.04 |
| CNc1cc(N2C(=O)N(Cc3c(F)cc(OC)cc3F)c3ccccc3S2(=O)=O)cnc1OC [Example 181, 4-(2,6-difluoro-4-methoxybenzyl)-2-[6-methoxy-5-(methylamino)pyridin-3-yl]-2H-1,2,4-benzothiadiazin-3(4H)-one 1,1-dioxide] | 1.62 |
| COc1cc(F)c(CN2C(=O)N(c3ccc4ncsc4c3)S(=O)(=O)c3cccnc32)c(F)c1 [Example 182, 2-(1,3-Benzothiazol-6-yl)-4-(2,6-difluoro-4-methoxybenzyl)-2H-pyrido[2,3-e][1,2,4]thiadiazin-3(4H)-one 1,1-dioxide] | 4.47 |
| COc1cc(OC)nc(N2C(=O)N(Cc3c(F)cc(OC)cc3F)c3ccccc3S2(=O)=O)c1 [Example 183, 4-(2,6-difluoro-4-methoxybenzyl)-2-(4,6-dimethoxypyridin-2-yl)-2H-1,2,4-benzothiadiazin-3(4H)-one 1,1-dioxide] | 2.75 |
| COc1cc(N2C(=O)N(Cc3c(F)cc(F)cc3Cl)c3ncccc3S2(=O)=O)cnc1OC [Example 185, 4-(2-Chloro-4,6-difluorobenzyl)-2-(5,6-dimethoxypyridin-3-yl)-2H-pyrido[2,3-e][1,2,4]thiadiazin-3(4H)-one 1,1-dioxide] | 4.17 |

Now from value to compound:

| Ki [nM] | Structure (SMILES) |
| --- | --- |
| 1.38 | COc1cc(F)c(CN2C(=O)N(c3cc(OC)nc(OC)c3)S(=O)(=O)c3cccnc32)c(F)c1 [Example 163, 4-(2,6-Difluoro-4-methoxybenzyl)-2-(2,6-dimethoxypyridin-4-yl)-2H-pyrido[2,3-e][1,2,4]thiadiazin-3(4H)-one 1,1-dioxide] |
| 0.661 | COc1cc(F)c(CN2C(=O)N(c3ccc(OC)c(OC)n3)S(=O)(=O)c3cccnc32)c(F)c1 [Example 164, 4-(2,6-Difluoro-4-methoxybenzyl)-2-(5,6-dimethoxypyridin-2-yl)-2H-pyrido[2,3-e][1,2,4]thiadiazin-3(4H)-one 1,1-dioxide] |
| 0.676 | COc1cc(F)c(CN2C(=O)N(c3cnc(OC)c(OC)c3)S(=O)(=O)c3cccnc32)c(F)c1 [Example 165, 4-(2,6-Difluoro-4-methoxybenzyl)-2-(5,6-dimethoxypyridin-3-yl)-2H-pyrido[2,3-e][1,2,4]thiadiazin-3(4H)-one 1,1-dioxide] |
| 0.851 | COc1ccc(N2C(=O)N(Cc3c(F)cccc3F)c3ncccc3S2(=O)=O)nc1OC [Example 169, 4-(2,-Difluorobenzyl)-2-(5,6-dimethoxypyridin-2-yl)-2H-pyrido[2,3-e][1,2,4]thiadiazin-3(4H)-one 1,1-dioxide] |
| 1.78 | COc1cc(F)c(CN2C(=O)N(c3cnc(OC)c(C)c3)S(=O)(=O)c3ccccc32)c(F)c1 [Example 171, 4-(2,6-difluoro-4-methoxybenzyl)-2-(6-methoxy-5-methylpyridin-3-yl)-2H-1,2,4-benzothiadiazin-3(4H)-one 1,1-dioxide] |
| 7.76 | CNc1ccc(N2C(=O)N(Cc3c(F)cc(F)cc3F)c3ncccc3S2(=O)=O)nc1OC [Example 172, 2-[6-methoxy-5-(methylamino)pyridin-2-yl]-4-(2,4,6-trifluorobenzyl)-2H-pyrido[2,3-e][1,2,4]thiadiazin-3(4H)-one 1,1-dioxide] |
| 2.4 | COc1cc(F)c(CN2C(=O)N(c3ccc(C)c(C)n3)S(=O)(=O)c3cccnc32)c(F)c1 [Example 173, 4-(2,6-Difluoro-4-methoxybenzyl)-2-(5,6-dimethylpyridin-2-yl)-2H-pyrido[2,3-e][1,2,4]thiadiazin-3(4H)-one 1,1-dioxide] |
| 7.24 | COc1cc(F)c(CN2C(=O)N(c3cc(C)cc(C)n3)S(=O)(=O)c3cccnc32)c(F)c1 [Example 174, 4-(2,6-Difluoro-4-methoxybenzyl)-2-(4,6-dimethylpyridin-2-yl)-2H-pyrido[2,3-e][1,2,4]thiadiazin-3(4H)-one 1,1-dioxide] |
| 1.35 | COc1cc(F)c(CN2C(=O)N(c3ccc(C)c(OC)n3)S(=O)(=O)c3cccnc32)c(F)c1 [Example 175, 4-(2,6-Difluoro-4-methoxybenzyl)-2-(6-methoxy-5-methylpyridin-2-yl)-2H-pyrido[2,3-e][1,2,4]thiadiazin-3(4H)-one 1,1-dioxide] |
| 2.19 | CNc1ncc(N2C(=O)N(Cc3c(F)cc(OC)cc3F)c3ncccc3S2(=O)=O)cc1OC [Example 177, 2-[5-Methoxy-6-(methylamino)pyridin-3-yl]-4-(2,6-difluoro-4-methoxybenzyl)-2H-pyrido[2,3-e][1,2,4]thiadiazin-3(4H)-one 1,1-dioxide] |
| 3.72 | CNc1nc(N2C(=O)N(Cc3c(F)cc(OC)cc3F)c3ccccc3S2(=O)=O)ccc1OC [Example 179, 4-(2,6-difluoro-4-methoxybenzyl)-2-[5-methoxy-6-(methylamino)pyridin-2-yl]-2H-1,2,4-benzothiadiazin-3(4H)-one 1,1-dioxide] |
| 8.51 | CNc1ncc(N2C(=O)N(Cc3c(F)cc(OC)cc3F)c3ncccc3S2(=O)=O)cc1C [Example 184, 4-(2,6-Difluoro-4-methoxybenzyl)-2-[5-methyl-6-(methylamino)pyridin-3-yl]-2H-pyrido[2,3-e][1,2,4]thiadiazin-3(4H)-one 1,1-dioxide] |
| 1.26 | CNc1cc(N2C(=O)N(Cc3c(F)cc(OC)cc3F)c3ncccc3S2(=O)=O)cnc1OC [Example 186, 4-(2,6-Difluoro-4-methoxybenzyl)-2-[6-methoxy-5-(methylamino)pyridin-3-yl]-2H-pyrido[2,3-e][1,2,4]thiadiazin-3(4H)-one 1,1-dioxide] |

Source: patent US10316028B2, “Orexin receptor antagonists” (Heptares Therapeutics Limited, priority 2012, dated 2019)
